Assay results reported in patent US6635629B2, “3-nitrogen-6,7-dioxygen steroids and uses related thereto” (Inflazyme Pharmaceuticals Ltd., priority 2000, dated 2003).
Read-outs that look alike come from different tables or passages of the source.

Experiments:
Jurkat clone E6.1 cells = experiment: Antigen-induced (anti-CD3 mAb) calcium flux in Jurkat clone E6.1 cells; assay type: cell-based; details: 20 μM; anti-CD3 mAb 4 μg/mL; Fura 2AM
Excerpt: Elevation of cytoplasmic calcium concentration is a common and crucial event which follows the activation of many types of cell surface receptors. Increases in intracellular calcium that occur following agonist activation of inositol lipid hydrolysis are the results of calcium release from the endoplasmic reticulum and the influx of calcium through the plasma membrane. Increases in cytosolic calcium concentration are involved in many important cellular responses in the inflammatory process including adhesion, motility, gene expression, proliferation, and degranulation. Changes in intracellular calcium centrations can affect both short and long term cellular responses. An assay method to evaluate a test compound's impact on calcium flux is provided as follows.
The resulting supernatants are discarded and each pellet is washed in 10 mL HBSS. Cell suspensions are accumulated and centrifuged for 5 minutes at 900 RPM to form a cell pellet. The resulting supernatant is discarded and the pellet is resuspended in HBSS at 1×10^7 cells/mL. The cell suspension is transferred to a 20 mm petri dish and incubated at 37° C., 5% CO2 for 20 minutes.
One volume of Fura 2AM is mixed to one volume of detergent Pluronic F127. Cells are labeled with 4 μL of probe solution to each mL of cell suspension. The petri dish is wrapped in aluminum foil to protect from light and placed on a plate shaker for 30 minutes at room temperature.
The following steps are done in the laminar flow hood with the fluorescent lights turned off. The petri dish is removed from the shaker and the labeled cell suspension is transferred to a 15 mL conical tube and washed twice with HBSS as above. The cell pellet is resuspended in 12 mL HBSS and left wrapped in foil for 30 minutes at room temperature. The labeled cell suspension is aliquoted (100 μL/well) into a Dynex 96 well white opaque tissue culture plate. […] Selected compounds were tested for dose related activity. Test samples and activator (anti—CD3 mAb at final concentration of 4 μg/mL, PharMingen) are added manually (50 μL), such that the minimum time to acquire the first data point after stimulation is approximately 30 seconds. The calcium influx response to anti-CD3 mAb is measured as an “end point” assay. The entire plate is read in 100 seconds using a kinetic of 1 second per well.
The plate is read before the addition of anti-CD3 to monitor non-specific effect of samples/drugs. Fluorescence emission is measured at 510 nm with excitation alternating between 340 and 380 every second using an excitation/emission filter pair. Data from these dual wavelengths are represented as a ratio of 2 excitations wavelengths. This ratio is independent of intracellular dye and cell concentrations, enabling real comparison between experiments.

[1] = tested on: rat mast cell line (RBL-2H3); experiment: Antigen-induced release of hexosaminidase from a rat mast cell line (RBL-2H3); assay type: cell-based; details: tested at 0.3, 3, 10 and 30 μM, read-out: Hex IC50
Description: The anti-allergic effects of a compound of the present invention was evaluated by measuring its effect on antigen-induced secretion of hexosaminidase from a passively sensitized rat mast cell line. The ability of a test compound to inhibit the release of mast cell granule contents, e.g., histamine and hexosaminidase, is indicative of the anti-allergy and/or anti-asthma activity of the compound. Hexosaminidase is released from the mast cell granule along with histamine and other mediators during antigen challenge. The test is performed as follows.
RBL-2H3 cells are grown in culture and passively sensitized for 1 hour at 37° C. to dinitrophenol (DNP) using anti-human-DNP (IgE). Cells are incubated with test compound for 30 minutes at 37° C. and stimulated with 0.5 μg/ml DNP-HSA (antigen) for 30 minutes. Aliquots of the supernatant are removed and used to measure the amount of hexosaminidase released during challenge with the antigen. […] The effect of each test compound is determined as a percentage of the antigen-induced response (minus background release) obtained in the presence of DMSO alone. These values are used to determine the degrees of inhibition of antigen-induced hexosaminidase release from the cells.

[2] = tested on: sensitized Brown Norway rats; experiment: Ovalbumin-induced accumulation of inflammatory cells in lung lavage fluid of sensitized Brown Norway rats; assay type: in vivo, rat; details: p.o., corn oil vehicle, relative to control animals
Description: The ability of a compound to inhibit the allergen-induced accumulation of inflammatory cells such as eosinophils and neutrophils in the lavage fluid obtained from sensitized animals is indicative of that compound's anti-asthma activity. […] The test is conducted as follows.
Male Brown Norway rats are sensitized to ovalbumin by single intraperitoneal injection of 1 mg ovalbumin adsorbed to 100 mg A(OH)3 (alum) in 1 ml sterile saline (saline control rats receive only sterile saline) on day 1, and allowed to sensitize until day 21. […] Rats are challenged with 0.5% ovalbumin in saline generated using a Devillbis nebulizer for 60 min on day 21.
Forty-eight hrs after challenge, animals are sacrificed with an overdose of intraperitoneally-delivered sodium pentobarbitol and the lungs are lavaged with cold 2×7 ml phosphate buffered saline. The recovered lavage fluid is placed on ice. The bronchoalveolar lavage fluid is centrifuged and the supernatant removed. The pellet is resuspended in phosphate buffered saline at 4° C. Cytospins are prepared and stained for differentiation and enumeration of cell types.
Test compound was administered in 300 μl corn oil (Tables 7 and 8) or water (Table 9), which were used as vehicles. Control animals received 300 μl corn oil or water alone, i.e., no drug. […] A negative value in Table 7, 8, or 9 indicates an exacerbation of the effect over the control animal.

[3] = Metabolic stability in human liver S9 fractions; assay type: in vitro ADME; details: 10 μM
Excerpt: The therapeutic effectiveness of a test compound can be often directly related to its metabolic stability in vivo. The majority of known, marketed drugs are metabolized by a group of enzymes known as P450 enzymes. The S9 fraction of human liver contains all the P450 enzymes and also cytoplasmic enzymes that may be involved in the metabolism of new chemical entities. Metabolism in vitro using human S9 fractions is a standard assay to evaluate relative metabolic stability of new compounds. The test is performed as follows.
Reagents are thawed on ice and combined to make up a Master Mix as follows: Potassium phosphate (100 mM, pH 7), G6P (0.25 mM), G6PDH (2 U/ml), NADPH (1 mM), UDP (0.25 mM), APPS (0.25 mM), and S9 fraction (2 mg/ml). A volume of 498 μl of the Master mix is dispensed into each microcentrifuge tube. A volume of 2 μl of 2.5 mM test compound (final concentration of 10 μM) is dispensed into the center of the lid of the appropriate tube, and the lids gently closed to prevent mixing. Synchronous combination of test compound and master mix is achieved by simultaneous ten times inversion of the tubes, which are then incubated at 37° C. and shaken at 150 rpm for the appropriate incubation times. While incubation is in progress, all 0 time samples are mixed individually by three times inversion followed by the immediate addition of 500 μl ice cold acetonitrile with three times inversion to stop the reaction. Immediately after each 15 minutes and 30 minutes incubation is complete, ice cold acetonitrile is added to each tube and the tubes mixed by three times inversion. All sample tubes are incubated at −80° C. for a minimum of 15 minutes, thawed and remixed by inversion. Aliquots of 650 μl are transferred to Chromatographic Specialties micro-spin filter system tubes (0.2 μm nylon membrane, C618505) and centrifuged at 13,000 rpm for 48 seconds. The sample filtrates are stored at −80° C.
Sample filtrates are analyzed on LCMS, and percent remaining after 15 and 30 minute incubation is calculated relative to the 0 minute incubation.
The metabolic stability of various compounds are summarized in Table 10 as the percent remaining after 15 or 30 minutes incubation with human liver S9 fractions.

[4] = inhibition of DNP-HSA antigen-induced hexosaminidase release
[5] = 37° C., 15 min incubation, relative to 0 minute incubation
[6] = 37° C., 30 min incubation, relative to 0 minute incubation

Structure (SMILES)	Calcium (% inhibition at 20 μM) (Jurkat clone E6.1 cells) [%]	IC50 [1, 4] [µM]	% inhibition of eosinophils ([2]; 5 mg/kg/day for 4 days) [%]	% inhibition of lymphocytes ([2]; 5 mg/kg/day for 4 days) [%]	% inhibition of neutrophils ([2]; 5 mg/kg/day for 4 days) [%]	% remaining after 15 min ([3]; human, s9, 15 min, pH 7) [%]	% remaining after 30 min ([3]; human, s9, 30 min, pH 7) [%]	IC50 ([1]; Rattus norvegicus, RBL-2H3, inhibition of DNP-HSA antigen-induced hexosaminidase release) [µM]	% inhibition of eosinophils ([2]; 1 mg/kg/day for 4 days) [%]	% inhibition of lymphocytes ([2]; 1 mg/kg/day for 4 days) [%]	% inhibition of neutrophils ([2]; 1 mg/kg/day for 4 days) [%]	% remaining after 15 min [3, 5] [%]	% remaining after 30 min [3, 6] [%]
CC=C1CCC2C3C(CC[C@]12C)[C@@]1(C)CCC(N)CC1[C@@H](O)[C@@H]3O (some centres unmarked) [Compound 49]	26.8	11	52	73	36	93 ± 6	85 ± 8	–	–	–	–	–	–
C=C1CCC2C3C(CC[C@]12C)[C@@]1(C)CCC(N)CC1[C@@H](O)[C@@H]3O (some centres unmarked) [Compound 53]	−0.8	–	24	13	57	–	–	17.6	–	–	–	–	–
CC(F)=C1CCC2C3C(CC[C@]12C)[C@@]1(C)CCC(N)CC1[C@@H](O)[C@@H]3O (some centres unmarked) [Compound 64]	–	–	62	81	70	104 ± 4	88 ± 5	–	–	–	–	–	–
COC(=O)C=C1CCC2C3C(CC[C@]12C)[C@@]1(C)CCC(N)CC1[C@@H](O)[C@@H]3O (some centres unmarked) [Compound 69]	–	–	–	–	–	73 ± 24	63 ± 6	–	–	–	–	–	–
C=C1CCC2C3C(CC[C@]12C)[C@@]1(C)CCC(N)CC1[C@@H](OC)[C@@H]3OC (some centres unmarked) [Compound 79]	9.1	18.4	–	–	–	67 ± 6	61 ± 14	–	–	–	–	–	–
CC(F)=C1CCC2C3C(CC[C@]12C)[C@@]1(C)CCC(N)CC1[C@@H](O)[C@@H]3O (some centres unmarked) [Compound 95]	11.2	13.5	14	30	45	–	–	–	–	–	–	–	–
CCC1CCC2C3C(CC[C@]12C)[C@@]1(C)CCC(N)CC1[C@@H](O)[C@@H]3O (some centres unmarked) [Compound 96]	–	–	−9	19	40	92 ± 19	94 ± 21	–	–	–	–	–	–
CCC1CCC2C3C(CC[C@]12C)[C@@]1(C)CCC(N)CC1[C@@H](O)[C@@H]3O (some centres unmarked) [Compound 97]	43.0	9.3	40	56	52	94 ± 10	89 ± 12	–	–	–	–	–	–
C=C1CCC2C3C(O)C(O)C4CC(NCc5cccnc5)CCC4(C)C3CCC12C.Cl.Cl (centres unmarked) [Compound 107]	11.6	17.2	–	–	–	–	–	–	−122	−28	23	–	–
C=C1CCC2C3C(CC[C@]12C)[C@@]1(C)CC[C@@H](NC(=O)Nc2ccccc2)CC1[C@@H](O)[C@@H]3O (some centres unmarked) [Compound 137]	–	–	–	–	–	93 ± 31	71 ± 17	–	–	–	–	–	–
C=C1CCC2C3C(CC[C@]12C)[C@@]1(C)CC[C@@H](NC(=O)NCCC)CC1[C@@H](O)[C@@H]3O (some centres unmarked) [Compound 138]	9.0	15	–	–	–	–	–	–	−52	33	35	–	–
CC1(C)CCC2=C1CCC1C2[C@@H](O)[C@H](O)C2C[C@@H](N)CC[C@]12C (some centres unmarked) [Compound 139]	26.3	10.3	–	–	–	–	–	–	–	–	–	100	100
CC1(C)CCC2=C1CCC1C2C(O)C(O)C2CC(NCc3ccc(F)c(F)c3)CCC21C.Cl (centres unmarked) [Compound 141]	36.3	9.4	–	–	–	–	–	–	–	–	–	100 ± 9	26 ± 4
CCC1(C)CCC2=C1CCC1C2C(O)C(O)C2CC(NCc3ccccc3)CCC21C.Cl (centres unmarked) [Compound 147]	36.3	18.1	–	–	–	–	–	–	40	36	58	–	–
